Ends that are not written are not given here.
What was measured:
[1] = system: Giardia; assay: Giardia plate assay, % of control (Table 3); type: cell-based; conditions: Conc 10 (uM or %); plate G7
Description: Data comparing AMP01 (wild type CAP 18 peptide (SEQ ID NO: 1) with various other agents is tabulated in Table 3. NTZ corresponds to nitazoxanide. ALB corresponds to albendazole.

[2] = system: Bovine Respiratory Disease (BRD); conditions: positive control treatment; reduces from approximately 30%; cited from earlier work
[3] = system: Escherichia coli Dh5alpha; assay: MIC with diluted or undiluted trypsin and without trypsin (variant CAP18 peptides); type: cell-based; conditions: compared to WT CAP18
Experimental: (§1) Testing of CAP18 variants for protease resistance using Escherichia coli Dh5alpha as an indicator organism. CAP18 variants were synthesized from GenScript, Inc, and solubilized in sterile purified water to a final concentration of 4 mg/ml. E. coli DH5alpha was grown overnight in 10 ml LB broth. Ten microliters of each CAP18 variant was treated with 2 μl (or 2 μl of the 10-fold diluted trypsin) of trypsin (0.25%, Sigma Aldrich) and incubated at 37° C. for 2 or 5 minutes in a PCR machine. An MIC assay was set up using trypsin-treated CAP18 variants in a 96-well plate. Briefly, the peptides were serially diluted 2-fold in LB broth to achieve a final volume of 50 μl in each well and 50 μl of the E. coli DH5alpha culture adjusted to a concentration of 2×10^6 cells/ml was added into each well. Appropriate controls (media only control, no CAP18 control) were included on the same plate. The plates were incubated at 37° C. for 24-48 hours and MIC for each variant was recorded. The experiment was repeated 3 times.
Numerous variant CAP18 peptides were tested to determine and assess their resistance to protease. In each assessment, the variant CAP18 peptides were compared to wild type CAP18 rabbit sequence ([…] (SEQ ID NO:1)). Peptides were evaluated using trypsin diluted 1:10, 1:2 and undiluted. Experiments were conducted in duplicate. In each instance minimal inhibitory concentration (MIC) of the peptide was determined in the presence of the applicable diluted or undiluted trypsin and in the absence of trypsin. Experiments l and 2 are duplicate assessments with 1:10 diluted trypsin. Experiments 3 and 4 are duplicate assessments with 1:2 diluted trypsin. Experiments 5 and 6 are duplicate assessments with undiluted trypsin.

[4] = system: E. coli DH5alpha; type: cell-based, Escherichia coli; conditions: peptide treated with trypsin at 37° C. before MIC assay
Experimental: CAP18 peptide variants single mutants were evaluated for resistance to trypsin. Peptides were subjected to trypsin protease treatment and then assessed for bacterial cell killing (against E. coli) in a MIC assay.
as §1, with “CAP18” for “Testing of CAP18 variants for protease resistance using Escherichia coli Dh5alpha as an indicator organism. CAP18”, “machine. The samples were then incubated at 98° C. for 5 minutes to inactivate trypsin.” for “machine.”

[5] = system: E. coli DH5 alpha; type: cell-based, Escherichia coli
Experimental: A MIC assay was set up using heat treated CAP18 variants in a 96-well plate. […] Appropriate controls (media only control, no CAP18 control) were included on the same plate. The plates were incubated at 37° C. for 24-48 hours and MIC for each variant was recorded. The experiment was repeated 3 times.

[6] = system: E. coli DH5alpha; type: cell-based, Escherichia coli; conditions: peptide treated with proteinase K at 37° C. before MIC assay
Experimental: CAP18 peptide variants single mutants were evaluated for resistance to proteinase K. Peptides were subjected to proteinase K treatment and then assessed for bacterial cell killing (against E. coli) in a MIC assay.
as §1, with “CAP18” for “Testing of CAP18 variants for protease resistance using Escherichia coli Dh5alpha as an indicator organism. CAP18”, “μl” for “μl (or 2 μl”, “proteinase K (Qjagen, >600 mAU/ml)” for “the 10-fold diluted trypsin) of trypsin (0.25%, Sigma Aldrich)”, “machine. The samples were then incubated at 98° C. for 5 minutes to inactivate proteinase K.” for “machine.”, “proteinase K-treated” for “trypsin-treated”

Molecule	% of control MV [1]	lung consolidation [2]	activity (MIC) and protease resistance [3]	Resistance to trypsin (MIC, ug/ml) [4]	Thermotolerance at 90 for 5 minutes (MIC, ug/ml) [5]	Resistance to proteinase K (MIC, ug/ml) [6]
CCCSc1ccc2nc(NC(=O)OC)[nH]c2c1 [ALB, albendazole]	1.5%	–	–	–	–	–
CC(=O)Oc1ccccc1C(=O)Nc1ncc([N+](=O)[O-])s1 [NTZ, nitazoxanide]	0.6%	–	–	–	–	–
CCCNC[C@]1(O)[C@H](C)O[C@@H](O[C@H]2[C@H](C)[C@@H](O[C@@H]3O[C@H](C)C[C@H](N(C)C)[C@H]3O)[C@](C)(O)C[C@@H](C)CN[C@H](C)[C@@H](O)[C@](C)(O)[C@@H](CC)OC(=O)[C@@H]2C)C[C@@]1(C)OC [tulathromycin]	–	~5%	–	–	–	–
CWTKSIPPKPCGCRKPLRKIRNKIKEKLKKIGQKIQGLLPKLAPRTDY (Description of sequence: Mutation Sequence) [SEQ ID NO: 22]	–	–	better activity (lower MIC) and protease resistance	–	–	–
CWTKSIPPKPCGLRKILKKIKNKIKEKLKKIGQKIQGLLPKLAPRTDY (Description of sequence: Mutation Sequence) [SEQ ID NO: 19]	–	–	better activity (lower MIC) and protease resistance	–	–	–
CWTKSIPPKPCGLRKKLKKIRNKIKEKLKKIGQKIQGLLPKLAPRTDY (Description of sequence: Mutation Sequence) [SEQ ID NO: 20]	–	–	better activity (lower MIC) and protease resistance	–	–	–
CWTKSIPPKPCGLRKRLKKIKNKIKEKLKKIGQKIQGLLPKLAPRTDY (Description of sequence: Mutation Sequence) [SEQ ID NO: 18]	–	–	effective at the lowest concentration (lowest MIC) and was the most protease resistant in all experiments	–	–	–
CWTKSIPPKPCGLRKRLRKIKNKIKEKLKKIGQKIQGLLPKLAPKTDY (Description of sequence: Mutation Sequence) [SEQ ID NO: 21]	–	–	better activity (lower MIC) and protease resistance	–	–	–
GIRKRLRKFRNKIKEKLKKIGQKIQGLLPKLAPRTDY [C13]	–	–	–	100 µg/mL	200 µg/mL	>400 µg/mL
GLKKRLRKFRNKIKEKLKKIGQKIQGLLPKLAPRTDY [C7]	–	–	–	50 µg/mL	200 µg/mL	>400 µg/mL
GLRKKLRKFRNKIKEKLKKIGQKIQGLLPKLAPRTDY [C8]	–	–	–	50 µg/mL	100 µg/mL	400 µg/mL
GLRKRIRKFRNKIKEKLKKIGQKIQGLLPKLAPRTDY [C14]	–	–	–	50 µg/mL	100 µg/mL	>400 µg/mL
GLRKRLKKFRNKIKEKLKKIGQKIQGLLPKLAPRTDY [C9]	–	–	–	400 µg/mL	50 µg/mL	400 µg/mL
GLRKRLRKFKNKIKEKLKKIGQKIQGLLPKLAPRTDY [C10]	–	–	–	50 µg/mL	100 µg/mL	400 µg/mL
GLRKRLRKFRNKIKEKIKKIGQKIQGLLPKLAPRTDY [C15]	–	–	–	50 µg/mL	200 µg/mL	>400 µg/mL
GLRKRLRKFRNKIKEKLKKIGQKIQGLLPKIAPRTDY [C16]	–	–	–	50 µg/mL	100 µg/mL	>400 µg/mL
GLRKRLRKFRNKIKEKLKKIGQKIQGLLPKLAPKTDY [C11]	–	–	–	200 µg/mL	200 µg/mL	>400 µg/mL
GLRKRLRKFRNKIKEKLKKIGQKIQGLLPKLAPRPDY [C6]	–	–	–	>400 µg/mL	1200 µg/mL	>400 µg/mL
GLRKRLRKFRNKIKEKLKKIGQKIQGLLPKPAPRTDY [C5]	–	–	–	400 µg/mL	>400 µg/mL	>400 µg/mL
GLRKRLRKFRNKIKPKLKKIGQKIQGLLPKLAPRTDY [C4]	–	–	–	>400 µg/mL	400 µg/mL	>400 µg/mL
GLRKRLRKFRPKIKEKLKKIGQKIQGLLPKLAPRTDY [C3]	–	–	–	>400 µg/mL	>400 µg/mL	>400 µg/mL
GLRKRLRKIRNKIKEKLKKIGQKIQGLLPKLAPRTDY [C12]	–	–	–	100 µg/mL	100 µg/mL	200 µg/mL
GLRKRLRPFRNKIKEKLKKIGQKIQGLLPKLAPRTDY [C2]	–	–	–	>400 µg/mL	100 µg/mL	>400 µg/mL
GLRPRLRKFRNKIKEKLKKIGQKIQGLLPKLAPRTDY [C1]	–	–	–	100 µg/mL	200 µg/mL	>400 µg/mL
